Legend:
PH1 domain of AFAP-110 [1] = biological target: T1, PH1 domain of AFAP-110 (Gallus gallus, UniProt Q90738); experiment: Lipid sedimentation assay, GST-PH1; format: binding; conditions: PC vesicles with lipid 19:1 (PC:PS 7:3), 0.025 mM GST fusion protein
T1 construct: AFAP-110 contains two PH domains, one amino terminal (PH1) and the other carboxy terminal (PH2); made in house; host or cells: bacteria
Description: E) Lipid sedimentation assay was performed using pleckstrin homology fusion protein GST-PH1 as described in the methods sections. The GST-PH1 fusion protein has the capacity to co-sediment with several lipids containing vesicles as indicated in the pellet (P). Soluble fractions (S) containing unbound GST-PH1 purified fusion proteins were resolved by SDS-PAGE and detected by Coomassie stain.
A sedimentation assay was used to detect PH domain protein association with membrane phospholipids. Phospholipid stock solutions: 1 mg/ml L-α-Ptdlns-4-P, 1.0 mg/ml 1,2-dipalmitoyl-sn-glycero-3-Ptdlns-3-P, 0.1 mg/ml 1,2-dioleoyl-sn-glycero-3-Ptdlns-3,4-P2, and 1 mg/ml L-α-Ptdlns-4,5-P2 in chloroform:methanol:water (60:30:4). However, 10 mg/ml L-α-phosphatidylinositol, 0.1 mg/ml L-α Ptdlns-3-P, 0.2 mg/ml L-α-Ptdlns-3,4,5-P3, 10 mg/ml L-α-phosphatidylserine, and 10 mg/ml L-α-phosphatidylcholine in chloroform neat. All lipid stocks were purged with dry N2 and stored −20° C. The lipid vesicles were prepared as follows utilizing a sonication method. Briefly, in a heavy walled tube, PC and another stock phospholipid (e.g. Ptdlns, Ptdlns-3-P, Ptdlns-4-P, Ptdlns-3,4-P2, Ptdlns-3,5-P2, Ptdlns-3,4,5-P3, or PC) were combined in a 19:1 molar ratio; PC and PS were combined in a 7:3 molar ratio. Lipids were dried with a stream of N2 and traces of solvent were removed by vacuum and resuspended to 5.2 mM PC in buffer B [10 mM HEPES, pH 7.5, 50 mM KCl, 0.5 mM EGTA, and 1.0 mM MgCl2]. The resulting phospholipid sheets were sonicated to form vesicles. Samples were prepared to contain 1.7 mM vesicle PC and 0.025 mM recombinant GST fusion protein (DAPP1 or PH1) in buffer B. Samples were incubated 60 min and centrifuged with a Beckman Airfuge for 15 min at room temperature. 16% of the supernatant and 100% of the pellet from each sample was used for analysis by Laemmli method of SDS polyacrylamide gel electrophoresis. The gels were stained with SYPRO Orange or Coomassie Blue to visualize the proteins.

PH domain of DAPP1 = biological target: T2, PH domain of DAPP1 (Homo sapiens, UniProt Q9UN19); experiment: Lipid binding assay (Far Western), GST-DAPP1; conditions: 0.5 μg/ml fusion protein
T2 construct: GST-fusion proteins that expressed the PH domain of DAPP1 as a positive control; made in house; host or cells: bacteria (plasmid provided by Mark Lemmon)
T2 sequence (Q9UN19 164-259 limits assumed): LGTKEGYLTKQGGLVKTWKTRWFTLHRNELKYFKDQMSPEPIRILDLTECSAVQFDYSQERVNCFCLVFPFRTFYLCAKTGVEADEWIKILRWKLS
Description: (§1) FIG. 5: The phospholipid binding properties of the PH domains of AFAP-110. A) Pleckstrin homology fusion proteins, GST-PH1, GST-PH2 and GST-DAPP1, were purified from bacteria by affinity chromatography. Phospholipids were spotted onto PVDF membranes as described in the methods section. The membranes were incubated overnight with 0.5 μg/ml • GST-PH1, GST-PH2 or GST-DAPP1. Washed membranes were incubated with anti-GST antibody and exposed to film.
C) Fusion protein, GST-DAPP1, was purified from bacteria by affinity chromatography. Two-fold changes in concentration (1.6 pg-100.0 pg) of phospholipids were spotted onto PVDF membranes as described in the methods section. Membranes were incubated with 0.5 μg/ml fusion proteins. Washed membranes were probed using with anti-GST antibody.
Pleckstrin homology (PH) fusion proteins GST-PH1, GST-PH2 and GST-DAPP1, were purified from bacteria by affinity chromatography. A Far Western Blot procedure was used for detecting the fusion protein binding to nitrocellulose immobilized phospholipids (Stevenson, J. Met. al., 1998); PIP strips and PIP arrays were purchased from Echelon, Inc. Overlay assays measured the relative amounts of GST-tagged fusion protein bound to spotted phospholipids. […]

PH1 domain of AFAP-110 [2] = biological target: T1, PH1 domain of AFAP-110; experiment: Lipid binding assay (Far Western), GST-PH1; conditions: 0.5 μg/ml fusion protein, lipids spotted on membrane
Description: as §1
B) Pleckstrin homology fusion protein, GST-PH1, was purified from bacteria by affinity chromatography. Two-fold changes in concentration (1.6 pg-100.0 pg) of phospholipids were spotted onto PVDF membranes as described in the methods section. The PIP arrays were incubated with 0.5 μg/ml fusion protein and probed with anti-GST antibody.
Pleckstrin homology (PH) fusion proteins GST-PH1, GST-PH2 and GST-DAPP1, were purified from bacteria by affinity chromatography. A Far Western Blot procedure was used for detecting the fusion protein binding to nitrocellulose immobilized phospholipids (Stevenson, J. Met. al., 1998); PIP strips and PIP arrays were purchased from Echelon, Inc. Overlay assays measured the relative amounts of GST-tagged fusion protein bound to spotted phospholipids. A plasmid encoding GST-DAPP1 previously shown to bind Ptdlns-3,4-P2 and Ptdlns-3,4,5-P3 (Dowler, S. et. al., 1999) was used as a control, kindly provided by Mark Lemmon (Lemmon, M. A., 2003). The membranes were wetted with methanol and then transferred to blocking solution composed of 3% BSA in TBS containing 1% Tween-20 (TBS-T) for 1 hour at 4° C. Membranes were incubated with 0.5 μg/ml each fusion proteins in TBS-T overnight at 4° C. Following incubation, membranes were rinsed three times with TBS-T, washed for 5 minutes and incubated at 4° C. for 1 hour with anti-GST antibody (1:20000 in TBS-T). Following the standard wash procedure, membranes were incubated at 4° C. for 30 minutes with peroxidase-conjugated secondary antibody (1:30000 in TBS-T). The washed membranes were incubated with chemiluminescence reagent and exposed to X-ray film.

T1 sequence (Q90738 153-249 limits assumed): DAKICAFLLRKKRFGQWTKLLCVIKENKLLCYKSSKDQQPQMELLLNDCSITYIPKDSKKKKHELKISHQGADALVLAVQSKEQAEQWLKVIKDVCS

binding (co-sedimentation) of GST-PH1 to lipid vesicles containing the lipid (PH1 domain of AFAP-110 [1]): low
binding of GST-DAPP1 to immobilized phospholipid (far western) (PH domain of DAPP1): binds well
binding of GST-PH1 to immobilized phospholipid (far western) (PH1 domain of AFAP-110 [2]): binding the weakest
Substance: Phosphoinositol-3,4,5-trisphosphate [Ptdlns-3,4,5-P3]
